Source: the supplement of paper PMC10307832

How the values were obtained:
Assay in all cases: relative viability (nuclei count vs DMSO), 5 days (fraction); higher = more cells survive
[1] = compound: CCN1C(=O)C2=CC(=C(N=C2N(C1=O)C3CC3)N)C(=O)N + Nc1ncn([C@H]2C[C@H](O)[C@@H](CO)O2)c(=O)n1 [Decitabine] (partner 2 µM)
How it was run: (§1)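 After 5 days of treatment, lung cancer cells in 1536-well plates were fixed and stained in a single step (final 0.05% Triton X-100, 1% formaldehyde, 1 ug/ml Hoechst) and their nuclei counted on 4× images. Treatment had been applied by pin tool the day after seeding as one drug alone or as a fixed anchor-drug dose with five library-drug doses (not always all listed) in √10 steps. Relative viability is the nuclei count of treated wells divided by that of vehicle wells, and values are medians of duplicate plates.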

[2] = compound: CCN1C(=O)C2=CC(=C(N=C2N(C1=O)C3CC3)N)C(=O)N + O=C(CCCCCCC(=O)Nc1ccccc1)NO [Vorinostat] (partner 1 µM)
How it was run: as §1

[3] = compound: CCN1C(=O)C2=CC(=C(N=C2N(C1=O)C3CC3)N)C(=O)N + O=C(c1cc(Cc2n[nH]c(=O)c3ccccc23)ccc1F)N1CCN(C(=O)C2CC2)CC1 [Olaparib] (partner 8 µM)
How it was run: as §1

[4] = compound: CCN1C(=O)C2=CC(=C(N=C2N(C1=O)C3CC3)N)C(=O)N + Cc1nc(NC(=O)N2CCC[C@H]2C(N)=O)sc1-c1ccnc(C(C)(C)C(F)(F)F)c1 [Alpelisib] (partner 2 µM)
How it was run: as §1

[5] = compound: CCN1C(=O)C2=CC(=C(N=C2N(C1=O)C3CC3)N)C(=O)N + Nc1nc2[nH]cc(CCc3ccc(C(=O)N[C@@H](CCC(=O)O)C(=O)O)cc3)c2c(=O)[nH]1 [Pemetrexed] (partner 0.2 µM)
How it was run: as §1

| Cell Line | relative viability ([1]; first compound 0.253 µM) | relative viability ([1]; first compound 0.8 µM) | relative viability ([1]; first compound 2.53 µM) | relative viability ([1]; first compound 8 µM) | relative viability ([2]; first compound 0.253 µM) | relative viability ([2]; first compound 0.8 µM) | relative viability ([2]; first compound 2.53 µM) | relative viability ([2]; first compound 8 µM) | relative viability ([3]; first compound 0.253 µM) | relative viability ([3]; first compound 0.8 µM) | relative viability ([3]; first compound 2.53 µM) | relative viability ([3]; first compound 8 µM) | relative viability ([4]; first compound 0.253 µM) | relative viability ([4]; first compound 0.8 µM) | relative viability ([4]; first compound 2.53 µM) | relative viability ([4]; first compound 8 µM) | relative viability ([5]; first compound 0.253 µM) | relative viability ([5]; first compound 0.8 µM) | relative viability ([5]; first compound 2.53 µM) | relative viability ([5]; first compound 8 µM) |
| --- | --- | --- | --- | --- | --- | --- | --- | --- | --- | --- | --- | --- | --- | --- | --- | --- | --- | --- | --- | --- |
| LC-2-ad | 0.765 | 0.735 | 0.681 | 0.777 | 0.663 | 0.754 | 0.698 | 0.721 | 0.803 | 0.892 | 0.736 | 0.772 | 0.838 | 0.897 | 0.881 | 0.914 | 0.288 | 0.298 | 0.273 | 0.278 |
| NCI-H358 | 0.193 | 0.207 | 0.19 | 0.227 | 0.788 | 0.625 | 0.628 | 0.863 | 0.584 | 0.61 | 0.578 | 0.581 | 0.795 | 0.91 | 0.819 | 0.87 | 0.172 | 0.181 | 0.188 | 0.164 |
| NCI-H2170 | 0.495 | 0.488 | 0.462 | 0.404 | 0.881 | 0.791 | 0.869 | 0.78 | 0.573 | 0.646 | 0.565 | 0.601 | 0.908 | 0.789 | 0.734 | 0.809 | 0.271 | 0.289 | 0.28 | 0.251 |
| A-427 | 0.552 | 0.537 | 0.521 | 0.563 | 0.923 | 0.926 | 0.842 | 0.852 | 0.763 | 0.792 | 0.703 | 0.744 | 1.02 | 1.04 | 1.04 | 1.09 | 0.952 | 0.927 | 1.08 | 0.927 |
| NCI-H1666 | 0.615 | 0.688 | 0.728 | 0.68 | 1.05 | 0.99 | 1 | 1.09 | 0.719 | 0.724 | 0.856 | 0.737 | 0.985 | 0.77 | 0.969 | 1.09 | 0.844 | 0.879 | 0.812 | 0.799 |
| LOU-NH91 | 0.849 | 0.781 | 0.768 | 0.798 | 0.863 | 0.848 | 0.948 | 0.903 | 0.913 | 0.924 | 0.92 | 0.946 | 0.687 | 0.716 | 0.721 | 0.684 | 0.369 | 0.377 | 0.383 | 0.379 |
| ABC-1 | 0.996 | – | 1.17 | 1.05 | 1.11 | – | 1.81 | 1.11 | 0.92 | – | 1.05 | 0.742 | 1.23 | 0.751 | 1.11 | 0.969 | – | – | – | – |
| NCI-H1651 | 0.534 | 0.585 | 0.582 | 0.386 | 0.571 | 0.493 | 0.55 | 0.462 | 0.223 | 0.177 | 0.202 | 0.186 | 0.86 | 0.948 | 0.875 | 0.957 | 0.582 | 0.608 | 0.588 | 0.597 |
| 201T | 0.866 | 0.81 | 0.814 | 0.844 | 0.92 | 0.982 | 0.945 | 0.973 | 0.87 | 0.869 | 0.832 | 0.901 | 1.04 | 1.02 | 1.04 | 1.04 | 0.328 | 0.309 | 0.34 | 0.313 |
